Assay results as given in PubChem BioAssay AID1963836 (Molecular Pharmacology Branch, DTP, NCI, 2024).

System: 857933-349-R-J2-PDC complex spheroid viability
Experiment: Anticancer human tumor 857933-349-R-J2-PDC patient-derived colon adenocarcinoma cell line growth inhibition [POLQ]
Details: for IC50: curve of first compound; for viability, T/C: stronger effect = lower value
Summary of the method: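 PDC + HUVEC + MSC complex spheroids; POLQ inhibitors ± partner drugs; top conc. at/near clinical Cmax, else 10 microM (SN-38 1 microM), half-log dilutions; 37 degrees C, 5% CO2.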

[1] = second compound 0.0316 µM, first compound 0.0316 µM
[2] = second compound 0.0316 µM, first compound 0.1 µM
[3] = second compound 0.0316 µM, first compound 0.316 µM
[4] = second compound 0.0316 µM, first compound 1 µM
[5] = second compound 0.0316 µM, first compound 3.16 µM
[6] = second compound 0.0316 µM, first compound 10 µM
[7] = second compound 0.1 µM, first compound 0.0316 µM
[8] = second compound 0.1 µM, first compound 0.1 µM
[9] = second compound 0.1 µM, first compound 0.316 µM
[10] = second compound 0.1 µM, first compound 1 µM
[11] = second compound 0.1 µM, first compound 3.16 µM
[12] = second compound 0.1 µM, first compound 10 µM
[13] = second compound 0.316 µM, first compound 0.0316 µM
[14] = second compound 0.316 µM, first compound 0.1 µM
[15] = second compound 0.316 µM, first compound 0.316 µM
[16] = second compound 0.316 µM, first compound 1 µM
[17] = second compound 0.316 µM, first compound 3.16 µM
[18] = second compound 0.316 µM, first compound 10 µM
[19] = second compound 1 µM, first compound 0.0316 µM
[20] = second compound 1 µM, first compound 0.1 µM
[21] = second compound 1 µM, first compound 0.316 µM
[22] = second compound 1 µM, first compound 1 µM
[23] = second compound 1 µM, first compound 3.16 µM
[24] = second compound 1 µM, first compound 10 µM
[25] = second compound 3.16 µM, first compound 0.0316 µM
[26] = second compound 3.16 µM, first compound 0.1 µM
[27] = second compound 3.16 µM, first compound 0.316 µM
[28] = second compound 3.16 µM, first compound 1 µM
[29] = second compound 3.16 µM, first compound 3.16 µM
[30] = second compound 3.16 µM, first compound 10 µM
[31] = second compound 10 µM, first compound 0.0316 µM
[32] = second compound 10 µM, first compound 0.1 µM
[33] = second compound 10 µM, first compound 0.316 µM
[34] = second compound 10 µM, first compound 1 µM
[35] = second compound 10 µM, first compound 3.16 µM
[36] = second compound 10 µM, first compound 10 µM
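Note: spheroids exposed to compounds for seven days before readout.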

**Q.** Which results are given for `CCc1cc2c(N3CCc4c(cc(Cn5ccnc5)cc4-c4cn(C)nc4C(F)(F)F)C3=O)cc(C)nc2c(OC)n1` + Cc1cccc(N(C)C(=O)C2C(O)CCN2c2nc(C)cc(C(F)(F)F)c2C#N)c1?
**A.** IC50 (second compound 0.0316 µM): > 10 µM; IC50 (second compound 0.1 µM): > 10 µM; IC50 (second compound 0.316 µM): > 10 µM; IC50 (second compound 1 µM): > 10 µM; IC50 (second compound 3.16 µM): > 10 µM; IC50 (second compound 10 µM): > 10 µM; viability, T/C [1]: 106%; viability, T/C [2]: 93.2%; viability, T/C [3]: 99%; viability, T/C [4]: 79.9%; viability, T/C [5]: 75.1%; viability, T/C [6]: 62.3%; viability, T/C [7]: 106%; viability, T/C [8]: 103%; viability, T/C [9]: 78.5%; viability, T/C [10]: 82%; viability, T/C [11]: 77.6%; viability, T/C [12]: 68.8%; viability, T/C [13]: 100%; viability, T/C [14]: 89.6%; viability, T/C [15]: 83.5%; viability, T/C [16]: 82.8%; viability, T/C [17]: 80.3%; viability, T/C [18]: 61.6%; viability, T/C [19]: 99.6%; viability, T/C [20]: 83%; viability, T/C [21]: 86.3%; viability, T/C [22]: 85.2%; viability, T/C [23]: 73.8%; viability, T/C [24]: 61.9%; viability, T/C [25]: 107%; viability, T/C [26]: 91.3%; viability, T/C [27]: 82.7%; viability, T/C [28]: 77.8%; viability, T/C [29]: 60.2%; viability, T/C [30]: 55.1%; viability, T/C [31]: 95.4%; viability, T/C [32]: 99.9%; viability, T/C [33]: 92.5%; viability, T/C [34]: 72.6%; viability, T/C [35]: 67.6%; viability, T/C [36]: 62.8%

**Q.** Which IC50 (second compound 0.0316 µM) does the source give for `COc1cc2cc(C(=O)CCC(=O)O)sc2cc1OC` + Cc1cccc(N(C)C(=O)C2C(O)CCN2c2nc(C)cc(C(F)(F)F)c2C#N)c1 here?
**A.** The IC50 was greater than 10 µM.

**Q.** And the IC50 (second compound 0.1 µM)?
**A.** Its IC50 is greater than 10 µM.

**Q.** What about the IC50 (second compound 0.316 µM) of the same compound?
**A.** The IC50 was greater than 10 µM.

**Q.** And the IC50 (second compound 1 µM)?
**A.** The IC50 was greater than 10 µM.

**Q.** And the IC50 (second compound 3.16 µM)?
**A.** The IC50 was greater than 10 µM.

**Q.** And the IC50 (second compound 10 µM)?
**A.** Its IC50 is greater than 10 µM.

**Q.** And the viability, T/C [1]?
**A.** The viability, T/C was 97.6%.

**Q.** And the viability, T/C [2]?
**A.** Its viability, T/C is 95.1%.

**Q.** What about the viability, T/C [3] of the same compound?
**A.** Its viability, T/C is 93.6%.

**Q.** What about the viability, T/C [4] of the same compound?
**A.** The viability, T/C was 97.7%.

**Q.** And the viability, T/C [5]?
**A.** The viability, T/C was 96.9%.

**Q.** And the viability, T/C [6]?
**A.** The viability, T/C was 84.1%.

**Q.** What about the viability, T/C [7] of the same compound?
**A.** Its viability, T/C is 94.8%.

**Q.** What about the viability, T/C [8] of the same compound?
**A.** The viability, T/C was 93%.

**Q.** And the viability, T/C [9]?
**A.** The viability, T/C was 102%.

**Q.** And the viability, T/C [10]?
**A.** Its viability, T/C is 102%.

**Q.** And the viability, T/C [11]?
**A.** Its viability, T/C is 86.8%.

**Q.** What about the viability, T/C [12] of the same compound?
**A.** The viability, T/C was 87.2%.

**Q.** What about the viability, T/C [13] of the same compound?
**A.** Its viability, T/C is 88.8%.

**Q.** What about the viability, T/C [14] of the same compound?
**A.** The viability, T/C was 93.8%.

**Q.** What about the viability, T/C [15] of the same compound?
**A.** Its viability, T/C is 89.9%.

**Q.** And the viability, T/C [16]?
**A.** Its viability, T/C is 89.4%.

**Q.** And the viability, T/C [17]?
**A.** Its viability, T/C is 87.9%.

**Q.** And the viability, T/C [18]?
**A.** The viability, T/C was 76.5%.

**Q.** What about the viability, T/C [19] of the same compound?
**A.** The viability, T/C was 89.4%.

**Q.** And the viability, T/C [20]?
**A.** Its viability, T/C is 96.5%.

**Q.** And the viability, T/C [21]?
**A.** The viability, T/C was 100%.

**Q.** And the viability, T/C [22]?
**A.** Its viability, T/C is 96.9%.

**Q.** What about the viability, T/C [23] of the same compound?
**A.** The viability, T/C was 101%.

**Q.** And the viability, T/C [24]?
**A.** The viability, T/C was 92.1%.

**Q.** And the viability, T/C [25]?
**A.** The viability, T/C was 104%.

**Q.** And the viability, T/C [26]?
**A.** The viability, T/C was 106%.

**Q.** And the viability, T/C [27]?
**A.** Its viability, T/C is 90.4%.

**Q.** What about the viability, T/C [28] of the same compound?
**A.** Its viability, T/C is 101%.

**Q.** And the viability, T/C [29]?
**A.** Its viability, T/C is 100%.

**Q.** What about the viability, T/C [30] of the same compound?
**A.** Its viability, T/C is 86.6%.

**Q.** And the viability, T/C [31]?
**A.** The viability, T/C was 84.7%.

**Q.** And the viability, T/C [32]?
**A.** The viability, T/C was 87.6%.

**Q.** And the viability, T/C [33]?
**A.** The viability, T/C was 81.6%.

**Q.** And the viability, T/C [34]?
**A.** Its viability, T/C is 105%.

**Q.** What about the viability, T/C [35] of the same compound?
**A.** Its viability, T/C is 88.8%.

**Q.** What about the viability, T/C [36] of the same compound?
**A.** The viability, T/C was 85.6%.
